Experiments:
[1] = tested on: NGF-deprived sympathetic neurons; assay: Survival assay of NGF-deprived sympathetic neurons; type: cell-based, rat; design: protection of NGF-deprived neurons (FIG. 5B legend): dose or concentration left out as unconfirmed
Protocol: (§1) Briefly, the neurons of postnatal day-1-2 Han/Wi strain rats were grown six days in vitro on polyornithine -laminin-coated dishes or glass coverslips with 100 ng/ml of human GDNF (PeproTech) or 30 ng/ml of 2.5 S mouse NGF (Promega). […] To reduce the number of nonneuronal cells, 1 μM cytosine arabinoside (Sigma-Aldrich) was always included next day after plating, but was not added to factor-deprived neurons. To deprive GDNF, the cultures were washed gently three times with GDNF-free culture medium. To remove NGF, the cultures were washed once with NGF-free medium and function-blocking anti-NGF antibodies (Roche) were added. The compounds of interest were added and initial neurons were counted immediately after neurotrophic factor deprivation. Living neurons were counted daily by a “blind” experimenter not aware of the identity of experimental groups. The following compounds were assayed: broad-range caspase inhibitor boc-aspartyl(OMe) -fluoromethylketone. […] When the compounds were dissolved in DMSO, the same amount of DMSO was always added to the control cultures.
(§2) In all studies described below, the neurons from newborn rat SCG were maintained in sister dishes with GDNF (100 ng/ml) or NGF (30 ng/ml) for six DIV, then deprived of these factors for 48 or 72 hours, and analysed. NGF- and GDNF-responsive neurons were always analysed in parallel and received identical treatment.

[2] = tested on: GDNF-deprived sympathetic neurons; assay: Survival assay of GDNF-deprived sympathetic neurons; type: cell-based, rat; design: protection of GDNF-deprived neurons (FIG. 5B legend): dose or concentration left out as unconfirmed
Protocol: as §1, §2

[3] = tested on: newborn rat sympathetic neurons from the superior cervical ganglion; assay: Survival of newly isolated sympathetic neurons maintained with neurotrophic factor; type: cell-based
Protocol: FIGS. 1A, 1B, and 1C. […] (1A) Newly isolated neurons were grown with GDNF (100 ng/ml), NGF (30 ng/ml) or without neurotrophic factors for eight days. The living neurons were counted daily and expressed as percent of initial neurons, counted two hours after plating. The mean±standard error of the mean of three independent cultures is shown for each data point. (1B) Newly isolated neurons were maintained with different doses of GDNF for six days. The living neurons were counted daily and expressed as percent of initial neurons, counted two hours after plating. For comparison, survival with NGF (30 ng/ml) is also shown. […] Living neurons were counted daily and expressed as percent of initial neurons counted immediately after factor deprivation. […]
Briefly, the neurons of postnatal day-1-2 Han/Wi strain rats were grown six days in vitro on polyornithine -laminin-coated dishes or glass coverslips with 100 ng/ml of human GDNF (PeproTech) or 30 ng/ml of 2.5 S mouse NGF (Promega). […] The compounds of interest were added and initial neurons were counted immediately after neurotrophic factor deprivation. Living neurons were counted daily by a “blind” experimenter not aware of the identity of experimental groups. […]
In similar conditions, about 98% of the NGF-maintained neurons had survived (FIG. 1 A). […] NGF- and GDNF-responsive neurons were always analysed in parallel and received identical treatment. […]

[4] = BAF at 50 μM, living neurons counted 72 h after deprivation
[5] = living neurons counted 72 h after treatment and deprivation

| Molecule | effect on death of NGF-deprived neurons [1, 4] | protection of NGF-deprived neurons (FIG. 5B legend) [1, 5] | effect on death of GDNF-deprived neurons [2, 4] | protection of GDNF-deprived neurons (FIG. 5B legend) [2, 5] | initially plated neurons survived ([3]; by sixth day in vitro, GDNF 100 ng/ml or NGF 30 ng/ml, percent of initial neurons counted two hours after plating) | saturating concentration for SCG neurons ([3]; dose-dependence study, neurons maintained six days) |
| --- | --- | --- | --- | --- | --- | --- |
| COC(=O)CC(NC(=O)OC(C)(C)C)C(=O)CF (stereo not drawn) [BAF, boc-aspartyl(OMe)-fluoromethylketone] | almost completely blocked death | protects | almost completely blocked death | protects |  |  |
| GDNF: human GDNF (PeproTech), glial cell line-derived neurotrophic factor (protein, UniProt P39905 78-211, looked up) Glial cell line-derived …: SPDKQMAVLPRRERNRQAAAANPENSRGKGRRGQRGKNRGCVLTAIHLNVTDLGLGYETKEELIFRYCSGSCDAAETTYDKILKNLSRNRRLVSDKVGQACCRPIAFDDDLSFLDDNLVYHILRKHSAKRCGCI |  |  |  |  | about 34% | 100 ng/mL |

From patent publication US7642047B2, “Method of screening cell death modulators” (priority 2003, dated 2010)
